For assay [1] the following is noted: sweetness depends on the tested concentration compared with sucrose; cited from earlier work.
A short description of assay [2]: Sensory evaluation of the samples prepared in Example 50 (Example 52; panel of 4, score 0-5 or +/++/+++). Format: in vivo, human. Also noted: key to Intensity of Smell: “+” for slight; “++” for moderate; “+++” for very strong.
Procedure: The reaction partner (amino acid, carbohydrate source) were dissolved/suspended in the reaction solvent and transferred into a glass beaker filled with sand pre-heated for at least 30 minutes at the reaction temperature in a drying oven. After the planned reaction time, the vials were transferred into ice water. After cooling to room temperature, sensory analysis and analytical characterization was performed.
For evaluation of the taste profile, the samples were tested by a panel of four people. 1 trained taster tasted independently the samples first. The taster was asked to describe the taste profile and score 0-5 according to the increasing sugar likeness, bitterness, aftertaste and lingering taste profiles. The first taster was allowed to re-taste, and then make notes for the sensory attributes perceived. Afterwards, another 3 tasters tasted and the attributes were noted and discussed openly to find a suitable description. In case that more than 1 taster disagreed with the results, the tasting was repeated. In some sensory test results (above), the taste rating was expressed by “+”, which means the intensity of the factors is shown by three levels. “+” for slight, “++” for moderate and “+++” for very strong.
A short description of assay [3]: Assay to test DPPH radical-scavenging activity, Example 65. In kind it is biochemical. Particulars: Reb-A with or without amino acids, 100° C., FIG. 49 and FIG. 50. As to the method:
1 mg 1,1-Diphenyl-2-picrylhydrazyl radical (DPPH)/ml ethanol, dilution to assay concentration were prepared in ethanol (40 μg/mL); Calibration samples were prepared with Ascorbic acid in a concentration of 0-10 μg/mL; as a negative control sample, water was used.
Samples in aqueous solution were used as such or diluted with water.
A 0.1 ml sample (or calibration standard) was mixed with 3.9 ml solution of DPPH (100 μMolar) and reacted while protected from light at room temperature for 30 min. Absorbance was determined at 517 nm against ethanol.
10 mM of amino acid and/or 10 mM sugar were dissolved in 10 ml 0.1 mM KH2PO4-buffer, pH=7.8.
The samples were kept at 100° C. in sealed glass vials (Pyrex 15 ml with screw caps) for 0 (before reaction), 2.5 or 5.0 hours. Thereafter the samples were transferred to an ice water bath and cooled down to room temperature. These samples were diluted 1:10 and used for the test assay for anti-oxidant potential.
(In general: The DPPH test is a chemical assay of radical scavenging.)

A short description of assay [4]: Sensory evaluation of GSGs and SGs, thaumatin, NHDC and combinations, Example 255. The settings on record: combinations of EPCalin (Thaumatin 45%) and NHDC dissolved in water. As to the method:
4.5 ppm Thaumatin (equivalent to 10 ppm EPCalin) was dissolved in water. Increasing amounts of NHDC (1-5 ppm) were added to the solution and the sensory properties were evaluated.
50 ppm (GSGs and SGs) were dissolved in water. Increasing amounts of NHDC (1-5 ppm) were added to the solution and the sensory properties were evaluated.
50 ppm (GSGs and SGs) and 4.5 ppm Thaumatin (equivalent to 10 ppm EPCalin) were dissolved in water. Increasing amounts of NHDC (1-5 ppm) were added to the solution and the sensory properties were evaluated.
Sweetness intensity was rated on 5-point scale
Sweetness intensity was rated on a 5-point scale

Where [5] appears, read: Table 52.3, reaction in 1 ml water + 9 ml Glycerin, 0.67 h, 100° C. (Table 50.3).
The mark [6] stands for this setting: Table 52.2, reaction in 1 ml water + 9 ml Glycerin, 0.67 h, 100° C. (Table 50.2).
Where [7] appears, read: Table 52.5, reaction in 1 ml water + 9 ml Glycerin, 2.0 h, 120° C. (Table 50.5).
Setting [8] is: Table 52.1, samples prepared in Example 50.

Entries after “also recorded” stand apart in the source; their conditions may differ. Residues, ends and D or L forms follow the SMILES beside them.

Take Thaumatin: the “times sweeter than sucrose / sugar” value in assay [1] is recorded as “about 2000 times”.

Consider `NCCCC[C@H](N)C(=O)O` [0.1 mMol Lys], for which, in assay [2] (setting [5]), the Smell entry is recorded as “Popcorn” and the Taste result is given as “Sweet”.

With `OC[C@H]1O[C@H](O[C@]2(CCl)O[C@H](CCl)[C@@H](O)[C@@H]2O)[C@H](O)[C@@H](O)[C@H]1Cl` [sucralose], the “times sweeter than sucrose / sugar” value in assay [1] is given as “about 600 times”.

`C=C1C[C@@]23CC[C@H]4[C@@](C)(CCC[C@@]4(C)C(=O)O[C@@H]4O[C@H](CO)[C@@H](O)[C@H](O)[C@H]4O)[C@@H]2CC[C@]1(O[C@@H]1O[C@H](CO)[C@@H](O)[C@H](O[C@@H]2O[C@H](CO)[C@@H](O)[C@H](O)[C@H]2O)[C@H]1O[C@@H]1O[C@H](CO)[C@@H](O)[C@H](O)[C@H]1O)C3` [Reb-A, Rebaudioside A]: in assay [3], the anti-oxidant properties result is given as “substantial anti-oxidant properties”.

On to `C[C@H](CC[C@@H](O[C@@H]1O[C@H](CO)[C@@H](O)[C@H](O)[C@H]1O[C@@H]1O[C@H](CO)[C@@H](O)[C@H](O)[C@H]1O)C(C)(C)O)[C@H]1CC[C@@]2(C)[C@H]3CC=C4[C@@H](CC[C@H](O[C@@H]5O[C@H](CO[C@@H]6O[C@H](CO)[C@@H](O)[C@H](O)[C@H]6O)[C@@H](O)[C@H](O)[C@H]5O)C4(C)C)[C@]3(C)[C@H](O)C[C@]12C` [mogroside IV], for which the “times sweeter than sucrose / sugar” value in assay [1] is 126 times.

Turning to `OC[C@@H](O)[C@@H](O)[C@H](O)[C@H](O)CO` [Mannitol], in assay [1], the “times sweeter than sucrose / sugar” value is recorded as 0.55-0.65 times.

`C=C1C[C@@]23CC[C@H]4[C@@](C)(CCC[C@@]4(C)C(=O)O[C@@H]4O[C@H](CO)[C@@H](O)[C@H](O)[C@H]4O)[C@@H]2CC[C@]1(O[C@@H]1O[C@H](CO)[C@@H](O)[C@H](O[C@@H]2O[C@H](CO)[C@@H](O)[C@H](O)[C@H]2O)[C@H]1O[C@@H]1O[C@H](CO)[C@@H](O)[C@H](O)[C@H]1O)C3` [0.05 mMol Reb-A]: in assay [2] (setting [6]), the Smell result is listed as “neutral/unpleasant” and the Taste result was “sweet”.

On to `COc1ccc(CCC(=O)c2c(O)cc(O[C@@H]3O[C@H](CO)[C@@H](O)[C@H](O)[C@H]3O[C@@H]3O[C@@H](C)[C@H](O)[C@@H](O)[C@H]3O)cc2O)cc1O` [10 ppm NHDC], for which the Sensory evaluation result in assay [4] is “Sweet, steep onset of sweetness, no lingering”.

With `N[C@@H](Cc1ccccc1)C(=O)O` [0.1 mMol Phe], in assay [2] (setting [6]), the Smell entry is given as “flowery/bloomy,; also recorded: caramel” and the Taste entry is “sweet”. Besides, in assay [2] (setting [7]), the “Intensity of Smell” value is “+”; the Smell entry is on record as “Caramel, burnt”; the Taste entry is “sweet”.

Regarding `N[C@@H](Cc1ccccc1)C(=O)O` [Phe 60 mMol], in assay [2] (setting [8]), the Smell result is reported as “flowery/bloomy-caramel” and the Taste result is listed as “Sweet”.

For the molecule `C[C@H](CC[C@@H](O[C@@H]1O[C@H](CO[C@@H]2O[C@H](CO)[C@@H](O)[C@H](O)[C@H]2O)[C@@H](O)[C@H](O)[C@H]1O[C@@H]1O[C@H](CO)[C@@H](O)[C@H](O)[C@H]1O)C(C)(C)O)[C@H]1CC[C@@]2(C)[C@@H]3CC=C4[C@@H](CC[C@H](O[C@@H]5O[C@H](CO[C@@H]6O[C@H](CO)[C@@H](O)[C@H](O)[C@H]6O)[C@@H](O)[C@H](O)[C@H]5O)C4(C)C)[C@]3(C)[C@H](O)C[C@]12C` [mogroside V], in assay [1], the “times sweeter than sucrose / sugar” value was 256-344 times.

With `C[C@H](N)C(=O)O` [0.1 mMol Ala], in assay [2] (setting [6]), the Smell result is given as “Agar” and the Taste result is on record as “sweet”.

Consider `N[C@@H](CCC(=O)O)C(=O)O` [167 mMol Glu], for which, in assay [2] (setting [8]), the Smell entry was “caramel” and the Taste entry is listed as “Sweet”.

On to `O=C[C@H](O)[C@H]1OC(=O)[C@@H](O)[C@H]1O` [0.1 mMol GlucLac], for which, in assay [2] (setting [7]), the “Intensity of Smell” value was “+++”, the Smell entry is “Burnt sugar” and the Taste result is “Bitter”.

`COC(=O)[C@H](Cc1ccccc1)NC(=O)[C@@H](N)CC(=O)O` [Aspartame] (H-Asp-Phe-OMe): the “times sweeter than sucrose / sugar” value in assay [1] is 160-200 times.

As for `O=S(=O)([O-])NC1CCCCC1.[Na+]` [sodium cyclamate], in assay [1], the “times sweeter than sucrose / sugar” value is given as “about 30 times”.

Consider `C=C1C[C@@]23CC[C@H]4[C@@](C)(CCC[C@@]4(C)C(=O)O[C@@H]4O[C@H](CO)[C@@H](O)[C@H](O)[C@H]4O)[C@@H]2CC[C@]1(O[C@@H]1O[C@H](CO)[C@@H](O)[C@H](O)[C@H]1O)C3` [Rubusoside], for which the “times sweeter than sucrose / sugar” value in assay [1] is given as 200 times.

The values above are taken from patent US20210045420A1, “SWEETENER AND FLAVOR COMPOSITIONS, METHODS OF MAKING AND METHODS OF USE THEREOF” (EPC Natural Products Co., Ltd., priority 2018, published 2021).
